US9284321B2, “Piperazino[1,2-a]indol-1-ones and [1,4]diazepino[1,2-a]indol-1-one” (Hoffmann-La Roche Inc., priority 2012, dated 2016)

Experiments:
[1] = test system: human embryonic stem cell derived neural stem cells (NSCs); test: Neural Stem Cell Proliferation Assay (neurogenesis assay, ATP levels by CellTiterGlo); assay type: cell-based; conditions: 96 h, compound concentration at which 150% activity of control (100%) is reached, NSC proliferation by ATP level after 4 days incubation, dose response 8 μM to 8 nM
Procedure, shortened: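 Read-out is CellTiterGlo ATP luminescence after 4-day culture (37 °C, 5% CO2) of dual-SMAD-derived human ESC NSCs, dosed 4 h post-seeding at 8 μM to 8 nM (11 points, 2-fold). EC150 marks the concentration reaching 150% of the media-only control (0.25% DMSO).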

Row | Compound | EC (150% of control) [1] [µM] | melting point [°C]
1 | O=C1NCCn2c1c(C(F)(F)F)c1cc(Cl)cc(-c3ccc(Cl)cc3)c12 [Example 187, 8-Chloro-6-(4-chlorophenyl)-10-(trifluoromethyl)-3,4-dihydro-2H-pyrazino[1,2-a]indol-1-one] | 0.088 | 214
2 | Cc1c2n(c3c(-c4ccco4)cc(F)cc13)CCNC2=O [Example 188, 8-Fluoro-6-(furan-2-yl)-10-methyl-3,4-dihydro-2H-pyrazino[1,2-a]indol-1-one] | 0.1 | 236
3 | N#Cc1cc(-c2cc(F)c(F)c(F)c2)c2c(c1)cc1n2CCNC1=O [Example 189, 1-Oxo-6-(3,4,5-trifluorophenyl)-3,4-dihydro-2H-pyrazino[1,2-a]indole-8-carbonitrile] | 0.22 | 304.5
4 | N#Cc1cc(-c2ccc(OC(F)(F)F)cc2)c2c(c1)cc1n2CCNC1=O [Example 190, 1-Oxo-6-[4-(trifluoromethoxy)phenyl]-3,4-dihydro-2H-pyrazino[1,2-a]indole-8-carbonitrile] | 0.037 | 311.5
5 | CS(=O)(=O)c1ccc(-c2cc(C#N)cc3cc4n(c23)CCNC4=O)cc1 [Example 191, 6-(4-Methylsulfonylphenyl)-1-oxo-3,4-dihydro-2H-pyrazino[1,2-a]indole-8-carbonitrile] | 0.24 | 329
6 | N#Cc1cc(-c2ccc(Cl)c(Cl)c2)c2c(c1)cc1n2CCNC1=O [Example 192, 6-(3,4-Dichlorophenyl)-1-oxo-3,4-dihydro-2H-pyrazino[1,2-a]indole-8-carbonitrile] | 0.13 | 330.5
7 | N#Cc1cc(-c2cccc(Cl)c2)c2c(c1)cc1n2CCNC1=O [Example 193, 6-(3-Chlorophenyl)-1-oxo-3,4-dihydro-2H-pyrazino[1,2-a]indole-8-carbonitrile] | 0.32 | 241.5
8 | N#Cc1cccc(-c2cc(C#N)cc3cc4n(c23)CCNC4=O)c1 [Example 194, 6-(3-Cyanophenyl)-1-oxo-3,4-dihydro-2H-pyrazino[1,2-a]indole-8-carbonitrile] | 1.08 | 253
9 | N#Cc1cc(-c2cccc(C(F)(F)F)c2)c2c(c1)cc1n2CCNC1=O [Example 195, 1-Oxo-6-[3-(trifluoromethyl)phenyl]-3,4-dihydro-2H-pyrazino[1,2-a]indole-8-carbonitrile] | 1.4 | 279.5
10 | Cc1c2n(c3c(-c4ccc(F)c(F)c4)cc(C#N)cc13)CCCNC2=O [Example 196, 7-(3,4-Difluorophenyl)-11-methyl-1-oxo-2,3,4,5-tetrahydro-[1,4]diazepino[1,2-a]indole-9-carbonitrile] | 0.086 | 278
11 | Cc1c2n(c3c(-c4ccc(C(F)(F)F)cc4)cc(C#N)cc13)CCCNC2=O [Example 197, 11-Methyl-1-oxo-7-[4-(trifluoromethyl)phenyl]-2,3,4,5-tetrahydro-[1,4]diazepino[1,2-a]indole-9-carbonitrile] | 0.14 | 252
12 | Cc1c2n(c3c(-c4ccc(F)cc4)cc(C#N)cc13)CCCNC2=O [Example 198, 7-(4-Fluorophenyl)-11-methyl-1-oxo-2,3,4,5-tetrahydro-[1,4]diazepino[1,2-a]indole-9-carbonitrile] | 0.033 | 278
13 | Cc1c2n(c3c(-c4ccc(Cl)cc4)cc(C#N)cc13)CCCNC2=O [Example 199, 7-(4-Chlorophenyl)-11-methyl-1-oxo-2,3,4,5-tetrahydro-[1,4]diazepino[1,2-a]indole-9-carbonitrile] | 0.053 | 298
14 | Cc1c2n(c3c(-c4ccc(C#N)cc4)cc(C#N)cc13)CCCNC2=O [Example 200, 7-(4-Cyanophenyl)-11-methyl-1-oxo-2,3,4,5-tetrahydro-[1,4]diazepino[1,2-a]indole-9-carbonitrile] | 0.041 | 314
15 | Cc1c2n(c3c(-c4ccc(OC(F)(F)F)cc4)cc(C#N)cc13)CCCNC2=O [Example 201, 11-Methyl-1-oxo-7-[4-(trifluoromethoxy)-phenyl]-2,3,4,5-tetrahydro-[1,4]diazepino[1,2-a]indole-9-carbonitrile] | 0.048 | 218
16 | N#Cc1cc(-c2ccc(F)c(F)c2F)c2c(c1)cc1n2CCNC1=O [Example 202, 1-Oxo-6-(2,3,4-trifluorophenyl)-3,4-dihydro-2H-pyrazino[1,2-a]indole-8-carbonitrile] | 0.046 | 294
17 | N#Cc1cc(-c2ccc(F)nc2)c2c(c1)cc1n2CCNC1=O [Example 203, 6-(6-Fluoropyridin-3-yl)-1-oxo-3,4-dihydro-2H-pyrazino[1,2-a]indole-8-carbonitrile] | 0.36 | 268

Row | Compound | EC (150% of control) [1] [µM] | melting point [°C]
18 | N#Cc1cc(-c2ccc(Cl)c(C(F)(F)F)c2)c2c(c1)cc1n2CCNC1=O [Example 204, 6-[4-Chloro-3-(trifluoromethyl)phenyl]-1-oxo-3,4-dihydro-2H-pyrazino[1,2-a]indole-8-carbonitrile] | 1.28 | 347
19 | Cc1c2n(c3c(-c4ccc(F)cc4F)cc(C#N)cc13)CCCNC2=O [Example 205, 7-(2,4-Difluorophenyl)-11-methyl-1-oxo-2,3,4,5-tetrahydro-[1,4]diazepino[1,2-a]indole-9-carbonitrile] | 0.031 | 225
20 | Cc1c2n(c3c(-c4ccc(Cl)cc4Cl)cc(C#N)cc13)CCCNC2=O [Example 206, 7-(2,4-Dichlorophenyl)-11-methyl-1-oxo-2,3,4,5-tetrahydro-[1,4]diazepino[1,2-a]indole-9-carbonitrile] | 0.031 | 257
21 | Cc1c2n(c3c(-c4ccc(Cl)cc4F)cc(C#N)cc13)CCCNC2=O [Example 207, 7-(4-Chloro-2-fluorophenyl)-11-methyl-1-oxo-2,3,4,5-tetrahydro-[1,4]diazepino[1,2-a]indole-9-carbonitrile] | 0.019 | 259
22 | Cc1c2n(c3c(-c4ccnc(F)c4)cc(C#N)cc13)CCCNC2=O [Example 208, 7-(2-Fluoropyridin-4-yl)-11-methyl-1-oxo-2,3,4,5-tetrahydro-[1,4]diazepino[1,2-a]indole-9-carbonitrile] | 0.049 | 264
23 | Cc1c2n(c3c(-c4ccc(F)nc4)cc(C#N)cc13)CCCNC2=O [Example 209, 7-(6-Fluoropyridin-3-yl)-11-methyl-1-oxo-2,3,4,5-tetrahydro-[1,4]diazepino[1,2-a]indole-9-carbonitrile] | 0.16 | 280
24 | COc1cc(-c2ccc(F)cc2)c2c(c1)cc1n2CCNC1=O [Example 210, 6-(4-Fluorophenyl)-8-methoxy-3,4-dihydro-2H-pyrazino[1,2-a]indol-1-one] | 2.29 | 220
25 | COc1cc(-c2ccc(Cl)cc2)c2c(c1)cc1n2CCNC1=O [Example 211, 6-(4-Chlorophenyl)-8-methoxy-3,4-dihydro-2H-pyrazino[1,2-a]indol-1-one] | 1.54 | 246
26 | COc1cc(-c2ccc(F)c(F)c2)c2c(c1)cc1n2CCNC1=O [Example 212, 6-(3,4-Difluorophenyl)-8-methoxy-3,4-dihydro-2H-pyrazino[1,2-a]indol-1-one] | 1.24 | 216
27 | COc1cc(-c2ccc(C(F)(F)F)cc2)c2c(c1)cc1n2CCNC1=O [Example 213, 8-Methoxy-6-[4-(trifluoromethyl)-phenyl]-3,4-dihydro-2H-pyrazino[1,2-a]indol-1-one] | 0.8 | 276
28 | N#Cc1cc(-c2ccc(Cl)cc2)c2c(c1)cc1n2CCCNC1=O [Example 214, 7-(4-Chlorophenyl)-1-oxo-2,3,4,5-tetrahydro-[1,4]diazepino[1,2-a]indole-9-carbonitrile] | 0.14 | 245.5
29 | N#Cc1cc(-c2ccc(F)cc2)c2c(c1)cc1n2CCCNC1=O [Example 215, 7-(4-Fluorophenyl)-1-oxo-2,3,4,5-tetrahydro-[1,4]diazepino[1,2-a]indole-9-carbonitrile] | 0.09 | 230
30 | O=C1NCCn2c1cc1cc(OC(F)(F)F)cc(-c3ccc(C(F)(F)F)cc3)c12 [Example 216, 8-(Trifluoromethoxy)-6-[4-(trifluoromethyl)-phenyl]-3,4-dihydro-2H-pyrazino[1,2-a]indol-1-one] | 0.022 | 243
31 | N#Cc1cc(-c2ccc(F)c(F)c2)c2c(c1)cc1n2CCCNC1=O [Example 217, 7-(3,4-Difluorophenyl)-1-oxo-2,3,4,5-tetrahydro-[1,4]diazepino[1,2-a]indole-9-carbonitrile] | 0.51 | 224.5
32 | N#Cc1cc(-c2ccc(C(F)(F)F)cc2)c2c(c1)cc1n2CCCNC1=O [Example 218, 1-Oxo-7-[4-(trifluoromethyl)-phenyl]-2,3,4,5-tetrahydro-[1,4]diazepino[1,2-a]indole-9-carbonitrile] | 0.45 | 241.5
33 | N#Cc1cc(-c2ccc(Cl)cc2F)c2c(c1)cc1n2CCCNC1=O [Example 219, 7-(4-Chloro-2-fluorophenyl)-1-oxo-2,3,4,5-tetrahydro-[1,4]diazepino[1,2-a]indole-9-carbonitrile] | 0.08 | 217.5
34 | N#Cc1cc(-c2ccnc(F)c2)c2c(c1)cc1n2CCCNC1=O [Example 220, 7-(2-Fluoropyridin-4-yl)-1-oxo-2,3,4,5-tetrahydro-[1,4]diazepino[1,2-a]indole-9-carbonitrile] | 0.5 | 275
